From patent US12312330B2, “1-((S)-1-(3-chloro-5-fluoro-2-((4-(1h-pyrazol-1-yl)-2-methylquinolin-8-yloxy)methyl)phenyl)ethyl)-imidazolidine-2,4-dione derivatives and related compounds as bradykinin (BK) B2 receptor antagonist for treating skin diseases” (Pharvaris GmbH, priority 2019, dated 2025)

Molecular target: T1, human bradykinin B2 receptor (hB2R) (Homo sapiens, UniProt P30411)
T1 sequence (P30411 1-391): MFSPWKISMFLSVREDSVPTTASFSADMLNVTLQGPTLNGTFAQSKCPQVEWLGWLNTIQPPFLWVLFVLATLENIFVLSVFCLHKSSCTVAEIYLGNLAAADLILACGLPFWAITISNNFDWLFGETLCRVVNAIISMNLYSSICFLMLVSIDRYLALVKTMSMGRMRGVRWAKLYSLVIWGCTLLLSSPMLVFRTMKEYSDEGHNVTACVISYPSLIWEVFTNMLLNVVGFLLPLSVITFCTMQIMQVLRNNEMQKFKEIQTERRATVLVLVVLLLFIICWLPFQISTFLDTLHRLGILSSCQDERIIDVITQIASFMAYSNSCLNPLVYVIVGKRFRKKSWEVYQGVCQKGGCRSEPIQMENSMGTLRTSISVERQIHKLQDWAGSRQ
Test: human bradykinin B2 receptor calcium mobilization (hB2R-CaM) assay
Type: cell-based
Conditions: antagonism of bradykinin (EC80) induced calcium mobilization, B2 Bradykinin Receptor Stable Cell Line HTS041C, 25 min pre-incubation; read-out: IC50-value towards human bradykinin B2 receptor (hB2R)
Text: The following cell-based human bradykinin B2 receptor calcium mobilization (hB2R-CaM) assay was used to determine the antagonistic activity of compounds selected from the example compounds Nos. 1 to 107 towards human bradykinin B2 receptor (hB2R). The assay is defined herein as a standard in vitro B2 receptor activity assay, which can be used to determine IC50 values of the compounds according to the present invention, e. g. the compounds shown in Examples 1-13.
The antagonistic activity of compounds according to the present invention was investigated with the hB2R-CaM assay using the B2 Bradykinin Receptor Stable Cell Line HTS041C (Eurofins, St. Charles MO) and the FLIPR Calcium 6 Assay Kit (Molecular Devices, Wokingham, UK) according to the instructions of the providers. CaM assay measurements were performed with a Flexstation 3 System (Molecular Devices) which allows the precise addition of compounds (B2R antagonists) and bradykinin (B2R agonist) to the cells and adjacent continuous recording of the time-dependent CaM assay signals.
HTS041C cells were cultured in high glucose DMEM cell culture medium (Lonza) supplemented with 10% heat-inactivated FBS (PAN Biotech), 10 mM HEPES, Penicillin/Streptomycin (200 U/mL, 200 μg/mL), lx non-essential amino acids (Lonza), and 250 μg/mL G418 (Invivogen) in cell incubator at 37° C. in a 5% CO2 atmosphere. One day before the CaM assay experiments cells were seeded in 200 μL DMEM cell culture medium with reduced FBS (5%) and without G418 on clear bottom black 96 well plates (ThermoFisher #165305). Cell starvation was carried out by incubation (37° C., 5% CO2) of 70.000 cells/well for 24 h to 28 h. Immediately prior calcium dye-loading the medium was carefully aspirated and cells were washed with Hank's balanced salt solution (HBSS, Gibco) containing Ca^2+, Mg^2+ and 20 mM HEPES, adjusted to pH 7.4 (HBSS+).
For calcium dye-loading one FLIPR 6 assay aliquot was dissolved in 20 mL HBSS+. 150 μL of the dye loading solution was added to cell plate and incubated for 120 min at 37° C. and 5% CO2. After dye loading the cell plate was immediately transferred to the pre-warmed (37° C.) Flexstation 3 System for CaM assaying.
Freshly prepared compound (B2 receptor antagonists) dilution series (8 pt, n=2) and bradykinin (B2 receptor agonist) solution in non-binding plates (Costar) were transferred to the Flexstation System (source plate) shortly before starting the experiment. Bradykinin was added in EC80 concentration determined in n>3 preliminary experiments with 8 pt concentration response curves (n=8)). CaM assay was executed by Flexstation 3 System starting with recording of calcium-sensitive dye fluorescence in bottom-read Flex modus with ex/em=485 nm/525 nm, cut off(em)=515 nm After 20 s, 50 μL of 4-fold concentrated compound dilutions were added to the cells resulting in a final DMSO (Sigma) concentration of 0.1% in the cell plate. CaM signals were monitored for 80 s after additions for detection of potential agonistic activities. Prior to bradykinin stimulus compound- and vehicle-treated cells were incubated for 25 min at 37° C. within the Flexstation System. Then 50 μL of a 5-fold concentrated bradykinin solution (HBSS+, 0.1% DMSO) was added to trigger CaM signals (Read out: Max-Min values) which were measured for 80 s post bradykinin stimulus.
IC50 determinations were performed by 4 parameter logistic model curve fitting of the 8 pt (n=2) compound concentration response curves using XLFIT (IDBS) software.

Row | Compound | IC50 [nM]
1 | Cc1cc(-n2cc(F)cn2)c2cccc(OCc3c(Cl)cc(F)cc3[C@H](C)N3CCCCC3=O)c2n1 [compound 16] | 11 to 100
2 | Cc1cc(-c2ncnn2C)c2cccc(OCc3c(Cl)cc(F)cc3[C@H](C)N3CCCCC3=O)c2n1 [compound 26] | ≤ 10
3 | Cc1cc(-c2ncnn2C)c2cccc(OCc3c(Cl)cc(F)cc3[C@H](C)N3CCCC3=O)c2n1 [compound 27] | ≤ 10
4 | Cc1cc(-n2cc(F)cn2)c2cccc(OCc3c(Cl)cc(F)cc3[C@H](C)N3CC[C@H](O)C3=O)c2n1 [compound 28] | 101 to 500
5 | Cc1cc(-c2ncnn2C)c2cccc(OCc3c(Cl)cc(F)cc3[C@H](C)N3CCOCC3=O)c2n1 [compound 34] | ≤ 10
6 | Cc1cc(-n2cc(F)cn2)c2cccc(OCc3c(Cl)cc(F)cc3[C@H](C)N3CC[C@H](Cl)C3=O)c2n1 [compound 37] | ≤ 10
7 | Cc1cc(-n2cc(F)cn2)c2cccc(OCc3c(Cl)cc(F)cc3[C@H](C)N3C[C@H](C)OCC3=O)c2n1 [compound 38] | 11 to 100
8 | Cc1cc(-n2cc(F)cn2)c2cccc(OCc3c(Cl)cc(F)cc3[C@H](C)N3C[C@@H](C)OCC3=O)c2n1 [compound 39] | 11 to 100
9 | Cc1cc(-c2ncnn2C)c2cccc(OCc3c(Cl)cc(F)cc3[C@H](C)N3C[C@@H](C)OCC3=O)c2n1 [compound 40] | ≤ 10
10 | Cc1cc(-c2ncnn2C)c2cccc(OCc3c(Cl)cc(F)cc3[C@H](C)N3C[C@H](C)OCC3=O)c2n1 [compound 41] | ≤ 10
11 | Cc1cc(-n2cc(F)cn2)c2cccc(OCc3c(Cl)cc(F)cc3[C@H](C)N3CC[C@@H](O)C3=O)c2n1 [compound 42] | 11 to 100
12 | Cc1cc(-c2ncnn2C)c2cccc(OCc3c(Cl)cc(F)cc3[C@H](C)N3CC[C@@H](O)C3=O)c2n1 [compound 43] | 11 to 100
13 | Cc1cc(-c2ncnn2C)c2cccc(OCc3c(Cl)cc(F)cc3[C@H](C)N3CC[C@H](Cl)C3=O)c2n1 [compound 44] | ≤ 10
14 | Cc1cc(-n2cc(F)cn2)c2cccc(OCc3c(Cl)cc(F)cc3[C@H](C)N3C[C@@H](O)CCC3=O)c2n1 [compound 45] | ≤ 10
15 | Cc1cc(-c2ncnn2C)c2cccc(OCc3c(Cl)cc(F)cc3[C@H](C)N3CC(=O)N(C)CC3=O)c2n1 [compound 47] | 11 to 100
16 | Cc1cc(-n2cc(F)cn2)c2cccc(OCc3c(Cl)cc(F)cc3[C@H](C)N3CCNCC3=O)c2n1 [compound 57] | 11 to 100
17 | Cc1cc(-c2ncnn2C)c2cccc(OCc3c(Cl)cc(F)cc3[C@H](C)N3CC(C)CC3=O)c2n1 (some centres unmarked) [compound 63] | ≤ 10
18 | Cc1cc(-n2cc(F)cn2)c2cccc(OCc3c(Cl)cc(F)cc3[C@H](C)N3CCC(C)(C)C3=O)c2n1 [compound 64] | 11 to 100
19 | Cc1cc(-c2ncnn2C)c2cccc(OCc3c(Cl)cc(F)cc3[C@H](C)N3CCC(C)(C)C3=O)c2n1 [compound 65] | 11 to 100
20 | CCC1CCC(=O)N([C@@H](C)c2cc(F)cc(Cl)c2COc2cccc3c(-n4cc(F)cn4)cc(C)nc23)C1 (some centres unmarked) [compound 66] | 11 to 100
21 | CCC1CCC(=O)N([C@@H](C)c2cc(F)cc(Cl)c2COc2cccc3c(-c4ncnn4C)cc(C)nc23)C1 (some centres unmarked) [compound 67] | ≤ 10
22 | Cc1cc(-c2ncnn2C)c2cccc(OCc3c(Cl)cc(F)cc3[C@H](C)N3C[C@H](C)NC(=O)C3=O)c2n1 [compound 68] | ≤ 10
23 | Cc1cc(-c2ncnn2C)c2cccc(OCc3c(Cl)cc(F)cc3[C@H](C)N3CC[C@H](N)C3=O)c2n1 [compound 69] | 11 to 100
24 | Cc1cc(-c2ncnn2C)c2cccc(OCc3c(Cl)cc(F)cc3[C@H](C)N3C[C@@H](O)CC3=O)c2n1 [compound 73] | ≤ 10
25 | Cc1cc(-c2ncnn2C)c2cccc(OCc3c(Cl)cc(F)cc3[C@H](C)N3CC(=O)N(C)[C@@H](C)C3=O)c2n1 [compound 74] | 11 to 100
26 | Cc1cc(-c2ncnn2C)c2cccc(OCc3c(Cl)cc(F)cc3[C@H](C)N3CC(=O)N[C@H](C)C3=O)c2n1 [compound 75] | 11 to 100
27 | Cc1cc(-n2cc(F)cn2)c2cccc(OCc3c(Cl)cc(F)cc3[C@H](C)N3CCN(C(C)C)CC3=O)c2n1 [compound 76] | ≤ 10
28 | Cc1cc(-n2cc(F)cn2)c2cccc(OCc3c(Cl)cc(F)cc3[C@H](C)N3CCN[C@H](C)C3=O)c2n1 [compound 77] | 11 to 100
29 | Cc1cc(-n2cc(F)cn2)c2cccc(OCc3c(Cl)cc(F)cc3[C@H](C)N3CCN(C(=O)OC(C)(C)C)[C@H](C)C3=O)c2n1 [compound 79] | 101 to 500
30 | Cc1cc(-n2cc(F)cn2)c2cccc(OCc3c(Cl)cc(F)cc3[C@H](C)N3CCN(C(=O)OC(C)(C)C)[C@@H](C)C3=O)c2n1 [compound 80] | 101 to 500

Next, values leading:

Row | IC50 [nM] | Compound
31 | 11 to 100 | Cc1cc(-n2cc(F)cn2)c2cccc(OCc3c(Cl)cc(F)cc3[C@H](C)N3CCCC3=O)c2n1 [compound 13]
32 | 11 to 100 | Cc1cc(-n2cc(F)cn2)c2cccc(OCc3c(Cl)cc(F)cc3[C@H](C)N3CC(=O)N(C(C)C)C3=O)c2n1 [compound 14]
33 | ≤ 10 | Cc1cc(-n2cc(F)cn2)c2cccc(OCc3c(Cl)cc(F)cc3[C@H](C)N3CC(=O)N(CCO)C3=O)c2n1 [compound 15]
34 | 11 to 100 | Cc1cc(-n2cc(F)cn2)c2cccc(OCc3c(Cl)cc(F)cc3[C@H](C)N3CC(=O)N(C4CC4)C3=O)c2n1 [compound 17]
35 | 11 to 100 | Cc1cc(-n2cc(F)cn2)c2cccc(OCc3c(Cl)cc(F)cc3[C@H](C)N3CCOCC3=O)c2n1 [compound 18]
36 | 11 to 100 | Cc1cc(-n2cc(F)cn2)c2cccc(OCc3c(Cl)cc(F)cc3[C@H](C)N3CC(=O)NC3=O)c2n1 [compound 19]
37 | 11 to 100 | CNC(=O)CN1C(=O)CN([C@@H](C)c2cc(F)cc(Cl)c2COc2cccc3c(-n4cc(F)cn4)cc(C)nc23)C1=O [compound 20]
38 | 11 to 100 | Cc1cc(-n2cc(F)cn2)c2cccc(OCc3c(Cl)cc(F)cc3[C@H](C)N3CC(=O)N(CC(=O)N(C)C)C3=O)c2n1 [compound 21]
39 | 11 to 100 | Cc1cc(-n2cc(F)cn2)c2cccc(OCc3c(Cl)cc(F)cc3[C@H](C)N3CC(=O)N(CC(=O)O)C3=O)c2n1 [compound 22]
40 | 11 to 100 | Cc1cc(-n2cc(F)cn2)c2cccc(OCc3c(Cl)cc(F)cc3[C@H](C)N3CC(=O)N(CCN)C3=O)c2n1 [compound 23]
41 | 11 to 100 | Cc1cc(-n2cc(F)cn2)c2cccc(OCc3c(Cl)cc(F)cc3[C@H](C)N3CC(=O)N(CCN(C)C)C3=O)c2n1 [compound 24]
42 | 11 to 100 | Cc1cc(-n2cc(F)cn2)c2cccc(OCc3c(Cl)cc(F)cc3[C@H](C)N3CC(=O)NCC3=O)c2n1 [compound 25]
43 | ≤ 10 | Cc1cc(-n2cc(F)cn2)c2cccc(OCc3c(Cl)cc(F)cc3[C@H](C)N3CC(=O)N(C)CC3=O)c2n1 [compound 46]
44 | ≤ 10 | Cc1cc(-n2cc(F)cn2)c2cccc(OCc3c(Cl)cc(F)cc3[C@H](C)N3CCNC(=O)C3=O)c2n1 [compound 50]
45 | 11 to 100 | Cc1cc(-n2cc(F)cn2)c2cccc(OCc3c(Cl)cc(F)cc3[C@H](C)N3CC(C)CC3=O)c2n1 (some centres unmarked) [compound 62]
46 | ≤ 10 | Cc1cc(-n2cc(F)cn2)c2cccc(OCc3c(Cl)cc(F)cc3[C@H](C)N3C[C@@H](O)CC3=O)c2n1 [compound 72]
47 | 11 to 100 | CC(=O)N1CCN([C@@H](C)c2cc(F)cc(Cl)c2COc2cccc3c(-n4cc(F)cn4)cc(C)nc23)C(=O)C1 [compound 78]
